The values below come from US20250263370A1 (Tay Therapeutics Limited, priority 2022, published 2025).

Structures are written as SMILES. Converted amounts (≈) assume the structure as drawn.

Data set [1] can be described thus: Thermodynamic solubility in FaSSIF pH 6.5 buffer. The data set is classed as physicochemical. As to conditions: for solubility thermodynamic / solubility thermodynamic at 24 h: FaSSIF buffer, 25 °C, pH 6.5, fassif, thermodynamic from solid; for solubility thermodynamic: Method 2 (LCMS, 25° C.); for Thermodynamic Solubility FaSSIF pH 6.5 (μM) / solubility thermodynamic at 24 h: Method 1 (UV-vis, 25° C., 24 hrs). How it is done: FaSSIF v2 buffer is freshly prepared prior to use according to the suppliers' instructions and the pH adjusted to 6.5 using 1 M NaOH or 1 M HCl as required. From 1 mM working solution of test compound in DMSO, the λmax of the test compound is determined by scanning from 200 nm to 700 nm, in 1 nm steps with an EPOCH UV/Visible spectrophotometer (Biotek Instruments Inc.). A 12-point standard curve of compound concentration versus absorption at λmax is generated via two-fold serial dilutions of the 1 mM working solution with DMSO. Approximately 1 mg of test compound is accurately weighed into an Eppendorf tube and the appropriate volume of FaSSIF buffer is added to make a nominal concentration of 1 mg/mL. The tube is incubated on a rotator at 20 rpm, 25° C. for 24 hrs. Samples are then filtered using 0.45 μm filters (Sartorious, CAT #1776C) and the filtrate subjected to UV-vis spectroscopy analysis. The absorption at λmax is compared to the standard curve to determine the concentration of compound in solution after 24 hours.
FaSSIF buffer was prepared according to the suppliers' instructions and the pH adjusted to 6.5 using 1 M NaOH or 1 M HCl as required. […] A stir stick was added to each vial and vials sealed with a moulded PTDE/SIL 96-well plate cover. The plate was shaken at 25° C. at 1,100 rpm using an Eppendorf Thermomixer Comfort plate shaker. The plates were filtered using a vacuum manifold and diluted with a mixture of H2O and acetonitrile containing internal standard. The concentration of the test compound in the filtrate was determined by LCMS analysis with reference to the internal standards to determine the solubility in the buffer.

The next data set addresses BRD4 BD1 (Homo sapiens (Human), UniProt O60885). The data set can be described thus: NanoBRET bromodomain assay, NanoLuc-BRD4-BD1 fusion in HEK293 cells. Format: cell-based. The note with it: top concentration 10 μM.
The nature of data set [2]: Intrinsic clearance in liver microsomes, rat. Format: in vitro ADME. The note with it: Method 1; for half-life at 1 μM: rat, liver microsomes, pH 7.4, rat liver microsomes, read-out: Half-Life (T1/2) (min), Rat; for Half-Life (T1/2) (min), Rat: rat liver microsomes. Put shortly: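 Compound at 1 μM (0.1–1% DMSO) incubated at 37 °C with mouse or rat liver microsomes (0.5 mg/mL protein) and 1 mM NADPH in PBS pH 7.4; samples taken up to 60 min and quenched in cold acetonitrile. LC-MS/MS of percent remaining gave half-life and CLint; no-NADPH controls run.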

A further data set addresses BRD4 BD2 (Homo sapiens (Human), UniProt O60885). The data set can be described thus: NanoBRET bromodomain assay, NanoLuc-BRD4-BD2 fusion in HEK293 cells.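 As to all read-outs here: tracer displacement BRET read in transfected cells after 2 h compound exposure at 37 °C, signal in milliBRET units corrected against no-tracer background wells.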 The note with it: for IC50: BRD4 BD2 (IC50), NanoBRET, HEK293 cells, top concentration 10 μM; for Fold selectivity: IC50 for BRD4 BD1 divided by IC50 for BRD4 BD2, qualitative if an IC50 is at the upper limit.
Data set [3] in a line: Plasma stability assay, rat plasma. The data set is classed as in vitro ADME. As to conditions: Method 2 (10 μM). The procedure, abridged: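 Compound at 5 μM final (0.5% DMSO) in one protocol or 10 μM (2% DMSO) in the other, incubated in plasma at 37° C.; samples taken 0–120 min and quenched with cold acetonitrile plus internal standard. LC-MS/MS gives percent remaining relative to the 0-min sample.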

A short description of data set [4]: Sprague-Dawley rat pharmacokinetics, IV and PO cassette dosing. The data set is classed as in vivo. The note with it: for PO F: PO 5 mg/kg; for PO F / IV T1/2: Method 1; for half-life: male, Sprague-Dawley, rat, plasma, iv, 1 mg/kg, Method 1, read-out: IV T1/2 (converted); for half-life / IV T1/2: IV 1 mg/kg. Put shortly:
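Male Sprague-Dawley rats (2 per arm) given up to 5 compounds in cassette, 1 mg/kg IV and 5 mg/kg PO, formulated in 5% DMSO/40% PEG-400/55% water. Plasma from serial blood samples was acetonitrile-precipitated and analysed by LC/MS/MS against matrix-matched standard curves.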

Procedure for BRD4 BD2: HEK293 cells were transfected using NanoLuc-BRD4-BD1 or NanoLuc-BRD4-BD2 fusion vectors and incubated at 37° C. in an atmosphere of 5% CO2 for 20-24 hours. The transfected cells were then dispensed into 96-well plates using 90 μl cell suspension per well containing 2×10^5 cells/mL in Opti-MEM and 1× final concentration of tracer. 90 μL per well of cell suspension without tracer was also dispensed into at least 3 wells as “No tracer control samples” for background correction. Serially diluted test compounds were prepared at 1000× concentration in DMSO and further diluted to 10× concentration in Opti-MEM. […] Plates were then incubated at 37° C. +5% 002 incubator for 2 hours. […] Donor emission (450 nm) and acceptor emission (610 nm) were measured using PHERAstar (BMG LabTech). For data analysis, the raw BRET ratio was generated and converted to milliBRET units with background correction using the formula: [(Acceptorsample/Donorsample−(Acceptorno tracer control/Donorno tracer control)]×1000. The mBU data was plotted as a function of compound concentration and IC50s for BRET assay were determined by nonlinear regression analysis of concentration response curves using the Collaborative Drug Discovery Vault software. The fold-selectivity was calculated by dividing the IC50 for BRD4 BD1 by the IC50 for BRD4 BD2.

As for `CNC(=O)c1[nH]c(C(=O)NC2CCC2)cc1OC(C)c1ccc(Cl)cn1` (single isomer, unassigned) [Example 33, 3-(1-(5-chloropyridin-2-yl)ethoxy)-N^5-cyclobutyl-N^2-methyl-1H-pyrrole-2,5-dicarboxamide], the solubility (thermodynamic) in data set [1] is 685 µM (≈ 258 µg/mL). On BRD4 BD1, this compound showed an IC50 not below 10 µM. In addition, the half-life at 1 μM in data set [2] is more than 60 min. In addition, on BRD4 BD2, the IC50 lay within 0.05 to 0.2 µM; the Fold selectivity result is “XX (Fold >50 and ≤200)”. In data set [3], the “Plasma Stability (% remaining at 120 minutes), Rat” value turned out to be 85%.

Take `C#Cc1ccc(C(C)Oc2cc(C(=O)NCC)[nH]c2C(=O)NC)cc1` (single isomer, unassigned) [Example 70, N^5-ethyl-3-(1-(4-ethynylphenyl)ethoxy)-N^2-methyl-1H-pyrrole-2,5-dicarboxamide]: the thermodynamic solubility in data set [1] turned out to be 365 µM (≈ 124 µg/mL). In addition, the half-maximal inhibitory concentration (IC50) against BRD4 BD1 was not below 10 µM. In addition, in data set [4], the “PO F” value was found to be 44% and the half-life was 36 min. Moreover, the half-life at 1 μM in data set [2] worked out at 60 min. Besides, on BRD4 BD2, the IC50 is less than 0.05 µM and the Fold selectivity entry is given as “XXX (Fold >200)”. In data set [3], the “Plasma Stability (% remaining at 120 minutes), Rat” value came to 92%.

On to `CNC(=O)c1[nH]c(C(=O)N[C@H]2CC[C@H](O)CC2)cc1OC(C)c1ccccc1` (single isomer, unassigned) [Example 98, N^5-(trans-4-hydroxycyclohexyl)-N^2-methyl-3-(1-phenylethoxy)-1H-pyrrole-2,5-dicarboxamide], for which, in data set [1], the “Thermodynamic Solubility FaSSIF pH 6.5 (μM)” value is 429 μM. Besides, on BRD4 BD1, the IC50 is not below 10 µM. In data set [4], the “IV T1/2” value is 72 min and the “PO F” value is recorded as 31%. In addition, the “Half-Life (T1/2) (min), Rat” value in data set [2] is on record as more than 60 min. At BRD4 BD2, the IC50 was more than 10 µM; the Fold selectivity result is “— (Fold ≥0 and ≤2)”.

Regarding `CNC(=O)c1[nH]c(C(=O)N[C@H]2CC[C@H](OC)CC2)cc1OC(C)c1ccccc1` (single isomer, unassigned) [Example 100, N^5-(trans-4-methoxycyclohexyl)-N^2-methyl-3-(1-phenylethoxy)-1H-pyrrole-2,5-dicarboxamide], the “Thermodynamic Solubility FaSSIF pH 6.5 (μM)” value in data set [1] is given as 377 μM. At BRD4 BD1, this compound displayed an IC50 not below 10 µM. The “Half-Life (T1/2) (min), Rat” value in data set [2] was 19 min. Also, on BRD4 BD2, the IC50 was more than 10 µM; the Fold selectivity entry was “— (Fold ≥0 and ≤2)”.

Take `CNC(=O)c1[nH]c(C(=O)NC2CCC2)cc1OC(C)c1ccccc1` (single isomer, unassigned) [Example 102, N^5-cyclobutyl-N^2-methyl-3-(1-phenylethoxy)-1H-pyrrole-2,5-dicarboxamide]: the solubility (thermodynamic) at 24 h in data set [1] came out at 188 µM (≈ 64.2 µg/mL). This compound had an IC50 at BRD4 BD1 not below 10 µM. In data set [4], the “PO F” value was determined as 13% and the half-life was 162 min. Besides, in data set [2], the half-life at 1 μM amounted to 41 min. On BRD4 BD2, the IC50 is more than 10 µM; the Fold selectivity entry was “— (Fold ≥0 and ≤2)”.

Turning to `CNC(=O)c1[nH]c(C(=O)NC2CCC(F)(F)CC2)cc1OC(C)c1ccccc1` (single isomer, unassigned) [Example 103, N^5-(4,4-difluorocyclohexyl)-N^2-methyl-3-(1-phenylethoxy)-1H-pyrrole-2,5-dicarboxamide], the solubility (thermodynamic) at 24 h in data set [1] amounted to 57 µM (≈ 23.1 µg/mL). Moreover, on BRD4 BD1, the IC50 is not below 10 µM. The half-life at 1 μM in data set [2] was 19 min. Moreover, on BRD4 BD2, the IC50 was in the range of 0.05 to 0.2 µM; the Fold selectivity result was “XX (Fold >50 and ≤200)”.

As for `CNC(=O)c1[nH]c(C(=O)NC2CCC(F)(F)CC2)cc1OC(C)c1ccccc1` (single isomer, unassigned) [Example 104, N^5-(4,4-difluorocyclohexyl)-N^2-methyl-3-(1-phenylethoxy)-1H-pyrrole-2,5-dicarboxamide], in data set [1], the “Thermodynamic Solubility FaSSIF pH 6.5 (μM)” value is 47 μM. For the same compound, the IC50 on BRD4 BD1 is not below 10 µM. For the same compound, the “Half-Life (T1/2) (min), Rat” value in data set [2] amounted to 10 min. In addition, on BRD4 BD2, the IC50 was more than 10 µM; the Fold selectivity result was “— (Fold ≥0 and ≤2)”.

In data set [1], `CNC(=O)c1[nH]c(C(=O)NC2CC2)cc1O[C@@H](C)c1ccccc1F` [Example 59, (S)—N^5-cyclopropyl-3-(1-(2-fluorophenyl)ethoxy)-N^2-methyl-1H-pyrrole-2,5-dicarboxamide] displayed a thermodynamic solubility of 635 µM (≈ 219 µg/mL). In addition, on BRD4 BD1, the 50% inhibitory concentration (IC50) was not below 10 µM. In addition, in data set [4], the “IV T1/2” value came to 66 min and the “PO F” value is given as 70%. In data set [2], the half-life at 1 μM is more than 60 min. In addition, on BRD4 BD2, the IC50 was in the range of 0.05 to 0.2 µM; the Fold selectivity result was “XX (Fold >50 and ≤200)”. Also, the “Plasma Stability (% remaining at 120 minutes), Rat” value in data set [3] is given as 50%.

In data set [1], `CNC(=O)c1[nH]c(C(=O)NC2CC2)cc1O[C@@H](C)c1ccc(Cl)cc1` [Example 62, (S)-3-(1-(4-chlorophenyl)ethoxy)-N^5-cyclopropyl-N^2-methyl-1H-pyrrole-2,5-dicarboxamide] yielded a thermodynamic solubility of 320 µM (≈ 116 µg/mL). Moreover, the IC50 against BRD4 BD1 is not below 10 µM. Further, in data set [4], the “PO F” value is listed as 8% and the half-life is 30 min. Further, the half-life at 1 μM in data set [2] is more than 60 min. In addition, on BRD4 BD2, the IC50 is less than 0.05 µM and the Fold selectivity result is “XXX (Fold >200)”. Besides, the “Plasma Stability (% remaining at 120 minutes), Rat” value in data set [3] was found to be 82%.
